Laboratory results from paper PMC7689712, “Characterization of ancestral myosin XI from Marchantia polymorpha by heterologous expression in Arabidopsis thaliana” (The Plant Journal, 2020).

Target: T1, Mp myosin XI-MD (Marchantia polymorpha, UniProt H3JRT9)
T1 construct: gene MyoXI; motor domain, residues 1-738; N-terminal FLAG tag (MDYKDDDDKRSMNSRPA), C-terminal GGG-Myc-His8 tag
T1 sequence (H3JRT9 1-738): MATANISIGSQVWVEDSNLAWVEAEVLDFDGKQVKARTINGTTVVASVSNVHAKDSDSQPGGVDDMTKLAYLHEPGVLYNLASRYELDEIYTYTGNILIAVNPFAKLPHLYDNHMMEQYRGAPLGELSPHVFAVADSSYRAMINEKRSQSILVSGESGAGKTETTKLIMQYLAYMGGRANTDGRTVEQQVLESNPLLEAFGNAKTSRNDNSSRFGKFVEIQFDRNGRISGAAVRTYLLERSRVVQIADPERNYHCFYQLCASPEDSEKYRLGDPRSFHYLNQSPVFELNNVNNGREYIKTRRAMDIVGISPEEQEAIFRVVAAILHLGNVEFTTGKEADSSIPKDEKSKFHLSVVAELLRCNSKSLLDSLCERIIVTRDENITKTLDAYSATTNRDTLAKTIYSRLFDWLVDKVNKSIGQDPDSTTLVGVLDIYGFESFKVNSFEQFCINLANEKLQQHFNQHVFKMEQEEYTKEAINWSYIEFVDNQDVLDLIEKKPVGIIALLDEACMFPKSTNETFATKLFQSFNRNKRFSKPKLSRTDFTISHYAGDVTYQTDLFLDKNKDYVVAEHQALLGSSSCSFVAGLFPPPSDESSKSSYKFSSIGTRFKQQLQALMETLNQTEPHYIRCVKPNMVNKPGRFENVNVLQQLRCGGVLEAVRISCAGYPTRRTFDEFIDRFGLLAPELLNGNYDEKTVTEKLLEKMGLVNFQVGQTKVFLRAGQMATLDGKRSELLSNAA
Assay: steady-state actin-activated Mg2+-ATPase assay
Type: biochemical
Conditions: F-actin varied, 25 °C

`Nc1ncnc2c1ncn2[C@@H]1O[C@H](COP(=O)(O)OP(=O)(O)OP(=O)(O)O)[C@@H](O)[C@H]1O` [ATP] was tested, and the “steady-state actin-activated Mg2+-ATPase assay” value was “we determined the maximum rate of ATP turnover (V max) and the actin concentration”.
